pEC50: −log10 of the molar value.

Assay [1] deals with human purified sGC (Homo sapiens (Human), UniProt Q02108+Q02153). The assay can be described thus: Measurement of sGC activation (enzyme): cGMP produced by human purified sGC, HTRF. Type of assay: biochemical. Particulars: for pEC50: concentration giving 50% of maximum activation; for sGC activation [%]: activation when the compound was not added taken as 100%, maximum concentration 100 μM, with SNP. Here is the method: The activity of sGC was evaluated by measuring the amount of a cyclic guanosine monophosphate (cGMP) which is produced by human purified sGC.
A test compound was dissolved in DMSO and diluted 20-fold with ultrapure water. 2 μL of the diluted test compound solution (maximum concentration 100 μM), 2 μL of a substrate solution [0.5 μM TEBA, 0.03 μM dithiothreitol, 0.01 μM GTP, 0.04 μM MgCl2, and 0.03 μM sodium nitroprusside (SNP)], and 6 μL of a human enzyme suspension were added to 384-well plates (manufactured by Greiner Bio-One), and incubated at room temperature for one hour. The quantitative determination of cGMP is using HTRF which based on the competition between sample cGMP and fluorescent dye labeled cGMP for binding to a cGMP-specific antibody.
The test results of some Example compounds that are the compounds of the formula (I) of the present invention are shown below. The sGC activation of the test compound was calculated by taking the activation when the compound was not added as 100%. As compared with the activation when the compound was not added, it was recognized that a compound having a sGC activation of more than 300% has sGC activation. In addition, in Tables, Ex represents Example number in which the test compound is described and the sGC activation [%] represents sGC activation (%).
Furthermore, the EC50 [μM] value was calculated as another parameter for expressing sGC activation. This parameter indicates the concentration of the evaluated compound giving 50% of a maximum activation, which is calculated based on the maximum activation that compound of Example 102 is added, which is taken as 100%. In this connection, when a known sGC activator, YC-1 (Lificiguat, [5-(1-benzyl-1H-indazol-3-yl)-2-furyl]methanol), was evaluated according to the above Test Example 1, its maximum activation was 52% of the maximum activation for compound of Example 102. Further, “−” means no evaluation.

Assay [2] relates to Wistar male rats. The assay is described as follows: Blood flow increasing in vivo: hind limb blood flow in anesthetized rats, laser blood flow imaging. The following applies: rat hind limb, oral, 2 hours after administration. Here is the method:
The hind limb blood flow in rats anesthetized with pentobarbital was measured by the following test method. Wistar male rats were used. […] Thus prepared administration liquid was orally administered, and 2 hours later, the hind limb blood flow was measured using a laser blood flow imaging device (PIM II Integral) under anesthesia with intraperitoneal administration of 60 mg/kg of pentobarbital.

[3] abbreviates: maximum activation of Example 102 taken as 100%.

Chain of human purified sGC (Q02153 whole entry): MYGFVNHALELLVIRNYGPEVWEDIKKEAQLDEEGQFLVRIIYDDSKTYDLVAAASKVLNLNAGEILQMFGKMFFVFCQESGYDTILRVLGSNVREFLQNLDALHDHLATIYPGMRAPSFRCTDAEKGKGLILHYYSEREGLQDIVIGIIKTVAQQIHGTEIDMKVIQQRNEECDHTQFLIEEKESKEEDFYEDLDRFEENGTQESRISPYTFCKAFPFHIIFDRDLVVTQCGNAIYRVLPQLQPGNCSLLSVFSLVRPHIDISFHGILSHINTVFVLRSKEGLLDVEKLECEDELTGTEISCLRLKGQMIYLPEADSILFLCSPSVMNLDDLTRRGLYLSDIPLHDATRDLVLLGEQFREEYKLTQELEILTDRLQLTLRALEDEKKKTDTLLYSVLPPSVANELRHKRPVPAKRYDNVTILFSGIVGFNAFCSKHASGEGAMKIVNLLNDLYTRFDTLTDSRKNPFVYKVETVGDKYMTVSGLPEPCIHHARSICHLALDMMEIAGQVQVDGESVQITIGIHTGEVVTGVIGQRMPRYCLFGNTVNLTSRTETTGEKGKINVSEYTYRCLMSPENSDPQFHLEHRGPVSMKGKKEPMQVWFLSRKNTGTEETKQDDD
Chain of human purified sGC (Q02108 whole entry): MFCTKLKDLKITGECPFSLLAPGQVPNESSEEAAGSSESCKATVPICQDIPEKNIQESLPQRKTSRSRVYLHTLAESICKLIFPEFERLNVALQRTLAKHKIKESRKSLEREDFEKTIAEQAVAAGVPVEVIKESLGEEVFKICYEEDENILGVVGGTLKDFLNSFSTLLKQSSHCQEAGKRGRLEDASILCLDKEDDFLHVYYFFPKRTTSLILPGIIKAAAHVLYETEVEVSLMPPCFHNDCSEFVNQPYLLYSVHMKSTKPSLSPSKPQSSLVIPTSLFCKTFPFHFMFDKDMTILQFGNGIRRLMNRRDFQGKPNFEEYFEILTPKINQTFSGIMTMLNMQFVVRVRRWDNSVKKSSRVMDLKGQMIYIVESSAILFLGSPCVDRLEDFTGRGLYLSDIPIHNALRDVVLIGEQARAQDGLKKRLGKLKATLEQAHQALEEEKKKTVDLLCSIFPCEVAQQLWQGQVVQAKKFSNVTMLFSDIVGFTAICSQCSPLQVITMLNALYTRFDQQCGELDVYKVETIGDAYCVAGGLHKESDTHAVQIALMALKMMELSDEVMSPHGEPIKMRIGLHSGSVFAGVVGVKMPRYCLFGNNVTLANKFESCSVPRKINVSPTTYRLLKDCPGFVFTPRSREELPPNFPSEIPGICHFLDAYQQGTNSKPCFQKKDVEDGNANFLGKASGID

By pEC50 is commonly meant the EC50 on a negative log10 scale, so that one unit is a factor of ten. A low value points to a large EC50. In assay [1] (setting [3]), `Cc1nc2c(OCC3CCCCC3)cccn2c1C(=O)N[C@H]1c2c(F)cccc2C[C@@H]1C(=O)O` [Ex 705] gave a pEC50 of 4.96.
In assay [1] (setting [3]), `Cc1nc2c(OCC3CCCCC3)cccn2c1C(=O)N[C@@H](C)c1cccc(C(=O)O)c1` [Ex 323] showed a pEC50 of 4.89.
Consider `Cc1nc2c(OCc3c(F)ccc(F)c3F)cccn2c1C(=O)N[C@@H](CO)c1ccccc1.Cl` [Ex 244], for which, in assay [1], the “sGC activation [%]” value was more than 1000%. The “blood flow increasing effect” value in assay [2] (dose of 30 mg/kg) is listed as “exhibited a blood flow increasing effect”.
Consider `Cc1nc2c(OCC3CCCCC3)cccn2c1C(=O)N[C@H]1CCN(C)C1` [Ex 341], for which the “sGC activation [%]” value in assay [1] is given as 980%. Also, the pEC50 in assay [1] (setting [3]) was 5.16. Besides, in assay [2] (dose of 30 mg/kg), the “blood flow increasing effect” value was “exhibited a blood flow increasing effect”.
As to `Cc1nc2c(OCC3CCCCC3)cccn2c1C(=O)N[C@@H]1c2ccc(F)cc2C[C@H]1C(=O)O` [Ex 706], the “sGC activation [%]” value in assay [1] is on record as more than 1000%. Further, in assay [1] (setting [3]), the pEC50 is 5.33. Moreover, the “blood flow increasing effect” value in assay [2] (dose of 10 mg/kg) is listed as “exhibited a blood flow increasing effect”.
Regarding `Cc1nc2c(OCc3c(F)cccc3F)cccn2c1C(=O)N[C@H]1CCCN(S(N)(=O)=O)C1` [Ex 247], the pEC50 in assay [1] (setting [3]) is 5.62. Besides, the “blood flow increasing effect” value in assay [2] (dose of 10 mg/kg) is “exhibited a blood flow increasing effect”.
In assay [1] (setting [3]), `Cc1nc2c(OCc3c(F)cccc3F)cccn2c1C(=O)N[C@H](c1ccccc1)[C@H](O)CO` [Ex 760] gave a pEC50 of 5.23. Moreover, in assay [2] (dose of 10 mg/kg), the “blood flow increasing effect” value is on record as “exhibited a blood flow increasing effect”.
Regarding `Cc1nc2c(OCc3c(F)cccc3F)cccn2c1C(=O)N[C@@H]1c2ccccc2C[C@H]1O.Cl` [Ex 430], in assay [1] (setting [3]), the pEC50 was 5.59. Further, the “blood flow increasing effect” value in assay [2] (dose of 10 mg/kg) is on record as “exhibited a blood flow increasing effect”.
`Cc1nc2c(OCc3c(F)ccc(F)c3F)cccn2c1C(=O)N[C@@H]1c2ccccc2C[C@H]1C(=O)O` [Ex 702]: in assay [1], the “sGC activation [%]” value is more than 1000%. The compound further showed a pEC50 in assay [1] (setting [3]) of 5.21. The “blood flow increasing effect” value in assay [2] (dose of 10 mg/kg) is given as “exhibited a blood flow increasing effect”.
In assay [1] (setting [3]), `Cc1nc2c(OCc3c(F)cccc3F)cccn2c1C(=O)NC(CO)(CO)c1ccccn1` [Ex 834] had a pEC50 of 5.39. The “blood flow increasing effect” value in assay [2] (dose of 10 mg/kg) was “exhibited a blood flow increasing effect”.
Consider `Cc1nc2c(OCC3CCCCC3)cccn2c1C(=O)N[C@@H](CC(=O)O)c1ccccc1` [Ex 251], for which, in assay [1], the “sGC activation [%]” value is on record as more than 1000%. The compound also gave a pEC50 in assay [1] (setting [3]) of 5.21. The “blood flow increasing effect” value in assay [2] (dose of 10 mg/kg) is recorded as “exhibited a blood flow increasing effect”.
The compound `Cc1nc2c(OCC3CCCCC3)cccn2c1C(=O)N[C@@H](CO)c1ccccc1` [Ex 102] showed a pEC50 in assay [1] (setting [3]) of 5.55. In addition, in assay [2] (dose of 10 mg/kg), the “blood flow increasing effect” value is “exhibited a blood flow increasing effect”.
In assay [1] (setting [3]), `Cc1nc2c(OCc3c(F)cccc3F)cccn2c1C(=O)N[C@H]1CCCNC1` [Ex 822] gave a pEC50 of 5.25.
Consider `Cc1nc2c(OCc3c(F)cccc3F)cccn2c1C(=O)N[C@@H](CO)C(C)C` [Ex 778], for which, in assay [1] (setting [3]), the pEC50 is 5.20.
With `Cc1nc2c(OCc3c(F)cccc3F)cccn2c1C(=O)N[C@@H]1c2ccccc2[C@@H](O)[C@H]1O` [Ex 759], the pEC50 in assay [1] (setting [3]) is 5.66. Also, in assay [2] (dose of 10 mg/kg), the “blood flow increasing effect” value is on record as “exhibited a blood flow increasing effect”.
For the compound `Cc1nc2c(OCC3CCCCC3)cccn2c1C(=O)N[C@H]1CCCN(C)C1` [Ex 226], the “sGC activation [%]” value in assay [1] is given as more than 1000%. This compound also gave a pEC50 in assay [1] (setting [3]) of 5.17.
Regarding `OCc1ccc(-c2nn(Cc3ccccc3)c3ccccc23)o1` [YC-1, [5-(1-benzyl-1H-indazol-3-yl)-2-furyl]methanol, reference compound], in assay [1] (maximum activation of Example 102 taken as 100%, read-out: maximum activation relative to the maximum activation for compound of Example 102), the Emax came to 52%.
In the case of `Cc1nc2c(OCCC(C)(C)C)cccn2c1C(=O)N[C@@H](CO)c1ccccc1.Cl` [Ex 205], in assay [1], the “sGC activation [%]” value is more than 1000%.
Compound `Cc1nc2c(OCc3c(F)cccc3F)cccn2c1C(=O)N[C@@]1(c2ccccc2)C[C@@H](O)[C@@H](O)C1` [Ex 766] showed a pEC50 in assay [1] (setting [3]) of 4.77.
With `Cc1nc2c(OCC3CCCCC3)cccn2c1C(=O)N[C@@H](CC(=O)O)CC(C)C` [Example 12, (3R)-3-({[8-(cyclohexylmethoxy)-2-methylimidazo[1,2-a]pyridin-3-yl]carbonyl}amino)-5-methylhexanoic acid], the pEC50 in assay [1] (setting [3]) was 5.52. In addition, the “blood flow increasing effect” value in assay [2] (dose of 10 mg/kg) was “exhibited a blood flow increasing effect”.
Regarding `Cc1nc2c(OCc3c(F)cccc3F)cccn2c1C(=O)NC(C)(C)CO` [Ex 772], the pEC50 in assay [1] (setting [3]) is 5.27.
Regarding `Cc1cccc2c1C[C@@H](C(=O)O)[C@@H]2NC(=O)c1c(C)nc2c(OCc3c(F)cccc3F)cccn12` [Ex 698], the “sGC activation [%]” value in assay [1] is given as more than 1000%. In assay [1] (setting [3]), this compound had a pEC50 of 4.72. The “blood flow increasing effect” value in assay [2] (dose of 10 mg/kg) is on record as “exhibited a blood flow increasing effect”.
`Cc1nc2c(OCc3c(F)cccc3F)cccn2c1C(=O)NC(CO)(CO)c1ccccc1.Cl` [Ex 424]: in assay [1], the “sGC activation [%]” value is on record as more than 1000%. Besides, the pEC50 in assay [1] (setting [3]) is 5.62. For the same compound, the “blood flow increasing effect” value in assay [2] (dose of 10 mg/kg) is “exhibited a blood flow increasing effect”.
In the case of `Cc1nc2c(OCc3c(F)cccc3F)cccn2c1C(=O)N[C@@H](CO)c1ccccc1.Cl` [Ex 119], the pEC50 in assay [1] (setting [3]) is 5.54. Also, the “blood flow increasing effect” value in assay [2] (dose of 10 mg/kg) is reported as “exhibited a blood flow increasing effect”.
In the case of `Cc1nc2c(OCc3cccc(F)c3F)cccn2c1C(=O)N[C@@H]1c2ccccc2[C@H](O)[C@H]1O` (stereo in doubt) [Ex 797], the pEC50 in assay [1] (setting [3]) was 5.05.
`Cc1nc2c(OCC3CCCCC3)cccn2c1C(=O)N[C@@H]1c2ccccc2C[C@H]1C(=O)O` [Ex 321]: the “sGC activation [%]” value in assay [1] is reported as more than 1000%. Besides, the pEC50 in assay [1] (setting [3]) was 5.35. Further, in assay [2] (dose of 10 mg/kg), the “blood flow increasing effect” value was “exhibited a blood flow increasing effect”.
On the same counts, the results for `Cc1nc2c(OCc3c(F)cccc3F)cccn2c1C(=O)N[C@@H]1c2c(F)cccc2C[C@H]1C(=O)O` [Ex 699] are more than 1000%, 4.82 and “exhibited a blood flow increasing effect”.
In assay [1] (setting [3]), `Cc1nc2c(OCc3cccc(F)c3F)cccn2c1C(=O)NC(CO)(CO)c1ccccc1` [Ex 829] showed a pEC50 of 5.57.
Take `Cc1nc2c(OCc3ccccc3F)cccn2c1C(=O)N[C@@H]1c2ccccc2[C@H](O)[C@H]1O` (stereo in doubt) [Ex 798]: the pEC50 in assay [1] (setting [3]) is 5.07.
Regarding `Cc1nc2c(OCc3c(F)cccc3F)cccn2c1C(=O)N[C@]1(c2ccccc2)C[C@@H](O)[C@@H](O)C1` [Ex 767], the pEC50 in assay [1] (setting [3]) was 5.52. For the same compound, the “blood flow increasing effect” value in assay [2] (dose of 10 mg/kg) is “exhibited a blood flow increasing effect”.
Turning to `Cc1nc2c(OCc3c(F)cccc3F)cccn2c1C(=O)N[C@H](C)CO` [Ex 776], in assay [1] (setting [3]), the pEC50 was 4.82.
As to `Cc1nc2c(OCc3c(F)cccc3F)cccn2c1C(=O)N[C@@H](CO)c1cccc(F)c1.Cl` [Ex 436], the “sGC activation [%]” value in assay [1] is more than 1000%.
For `Cc1nc2c(OCC3CCCCC3)cccn2c1C(=O)NC(CO)CO` [Ex 126], the pEC50 in assay [1] (setting [3]) was 4.96.
`Cc1nc2c(OCC3CCCCC3)cccn2c1C(=O)N[C@@H]1c2c(F)cccc2C[C@H]1C(=O)O` [Ex 704]: the “sGC activation [%]” value in assay [1] is listed as more than 1000%. Besides, the pEC50 in assay [1] (setting [3]) was 4.96. Also, the “blood flow increasing effect” value in assay [2] (dose of 10 mg/kg) is listed as “exhibited a blood flow increasing effect”.
`Cc1nc2c(OCC3CCCCC3)cccn2c1C(=O)N[C@@H](CC(=O)O)CC1CCC1` [Ex 179] showed a pEC50 in assay [1] (setting [3]) of 5.57. The “blood flow increasing effect” value in assay [2] (dose of 10 mg/kg) is “exhibited a blood flow increasing effect”.
As to `Cc1nc2c(OCc3ccccc3F)cccn2c1C(=O)NC(CO)(CO)c1ccccc1` [Ex 828], the pEC50 in assay [1] (setting [3]) was 5.12.

Source of the values: patent publication US9447090B2, “Imidazopyridine compounds” (Astellas Pharma Inc., priority 2011, dated 2016).
